{
  "source": "patent US20050255537A1",
  "about": "“Method for monitoring treatment with a parathyroid hormone” (priority 1999, published 2005)",
  "key": {"PICP, BSAP, NTX, DPD": {"tested_on": "PICP, BSAP, NTX, DPD", "assay": "Example 4 population pharmacodynamic models of biochemical markers (PICP, BSAP, NTX, DPD)", "type": "in vivo, human", "excerpt": "(§1) Population pharmacodynamic models were developed individually for total lumber spine BMD, femoral neck BMD, procollagen 1 carboxy-terminal propeptide (PICP), bone specific alkaline phosphate (BSAP), urinary N-telopeptide (NTX), and urinary free deoxypyridinoline (DPD). These treatment-response models characterized change in the pharmacodynamic endpoints and identified significant patient factors influencing response to therapy.\nThe time course of biochemical marker response to LY333334 dose was extensively evaluated as part of the overall population pharmacodynamic analyses. Pharmacodynamic models were developed for four biochemical markers: PICP and BSAP (biochemical measures of bone formation); NTX and […] (biochemical measures of bone resorption). Patient-specific factors that explained some of the variability of each model were identified and included in the model. As an additional evaluation, the relationship between LY333334 exposure and PICP response was modeled. Finally, the biochemical markers were evaluated as potential indicators of response to therapy by modeling the relationship between a change in the biochemical endpoint after 1 month of treatment and the increase in spine and femoral neck BMD after 21 months of treatment. […] Additional patient-specific factors were identified, which further decreased the variability in this predictive model.\nAn extensive investigation was undertaken to evaluate the time course of biochemical markers of bone formation (PICP and BSAP) and resorption (NTX and DPD) during LY333334 therapy. The population pharmacodynamic evaluation of these biochemical markers included data from approximately 340 patients randomly assigned to receive LY333334 40 μg/day (n≅170) or LY333334 20 μg/day (n≅170). […] Pharmacodynamic models based on linear, exponential, and spline functions of time were evaluated. […] These models reflect the complex time course of change in the underlying processes of bone formation and bone resorption occurring throughout the skeleton in response to the anabolic action induced by LY333334."}, "human subjects": {"tested_on": "human subjects", "assay": "Applicant's studies of daily dose of hPTH(1-34) in human subjects (bone markers, side effects)", "type": "in vivo", "description": "Therefore, treatment of osteoporosis in men or women with hPTH(1-34) preferably should use a daily dose greater than about 6 μg, more preferably at least about 15 μg. […] Therefore, any daily dose of hPTH(1-34) in the range of greater than about 6 μg to at least about 40 μg would be effective for reduction of the risk of both vertebral and nonvertebral fractures, according to the present method of using this form of parathyroid hormone."}, "postmenopausal women": {"tested_on": "postmenopausal women", "assay": "Example 4 population pharmacodynamic models of total lumbar spine and femoral neck BMD", "type": "in vivo, human", "excerpt": "Data from the studies described in Examples 1-3 above were further analyzed to develop more detailed models for the use of bone markers in monitoring and predicting effects of PTH on clinically significant correlates of efficacy in the treatment of osteoporosis, such as bone mineral density (BMD). Population pharmacodynamic (PD) models were developed to describe total lumbar spine and femoral neck bone mineral density (BMD) responses in ˜1500 postmenopausal women enrolled in a phase 3 study of LY333334 [rhPTH(1-34)]. Serum LY333334 (LY), procollagen 1 carboxy-terminal propeptide (PICP) and bone specific alkaline phosphatase (B SAP) concentrations, and urinary excretion of N-telopeptide (NTX) and free deoxypyridinoline (DPD) were also measured in a subset of ˜350 patients. LY dose, average steady-state LY concentration, and early changes in markers of bone turnover were each evaluated for their ability to predict subsequent changes in BMD. […] Response was greatest in patients with increased fracture risk (i.e., older women with low BMD, low body weight, and high bone turnover at baseline). In the subset analysis, PICP was the strongest indicator of BMD response; an increase >101 pM after 1 month of therapy was always associated with a gain in spine BMD. NTX was also a better predictor of increase in BMD than LY dose, but dose predicted BMD response better than LY, BSAP or DPD concentrations (p<0.001).\nas §1\nThe final treatment-response models for total lumbar spine and femoral neck BMD were used to calculate BMD values after 21 months of treatment for each patient, based on the individual's parameter estimates (empirical Bayesian estimates). Similarly, the final treatment-response models for each biochemical maker (PICP, BSAP, NTX, and DPD) were used to calculate concentration values after 1 month of treatment for each patient. These predicted BMD measurements were merged with the predicted biochemical marker concentrations for patients who completed at least 12 months of LY333334 therapy.\nBiochemical marker response-indicator models were developed to characterize the relationship between the biochemical marker concentrations at 1 month and response to therapy, as measured by change in total lumbar spine and femoral neck BMD.\nPopulation pharmacodynamic analyses were undertaken to evaluate the time course of the relationships between efficacy measures and LY333334 dose or LY333334 concentrations. […] As a part of this assessment, a population placebo-response model describing the change in BMD in patients randomly assigned to placebo (supplemented with calcium and vitamin D) was first developed. Patient-specific factors that explained some of the variability of that model were identified and included in the model. A pharmacodynamic model describing the therapeutic response was then developed for patients randomly assigned to LY333334 treatment using the placebo-response model as the baseline function. Thus, the progression of bone loss that occurs in osteoporosis patients receiving only calcium and vitamin D supplementation was separated from the effects of LY333334 treatment."}, "[1]": {"settings": "21 months, 20 and 40 μg groups together"}},
  "data": [
    {"compound": "CC[C@H](C)[C@H](NC(=O)[C@H](CCC(=O)O)NC(=O)[C@H](CO)NC(=O)[C@@H](NC(=O)[C@@H](N)CO)C(C)C)C(=O)N[C@@H](CCC(N)=O)C(=O)N[C@@H](CC(C)C)C(=O)N[C@@H](CCSC)C(=O)N[C@@H](Cc1cnc[nH]1)C(=O)N[C@@H](CC(N)=O)C(=O)N[C@@H](CC(C)C)C(=O)NCC(=O)N[C@@H](CCCCN)C(=O)N[C@@H](Cc1cnc[nH]1)C(=O)N[C@@H](CC(C)C)C(=O)N[C@@H](CC(N)=O)C(=O)N[C@@H](CO)C(=O)N[C@@H](CCSC)C(=O)N[C@@H](CCC(=O)O)C(=O)N[C@@H](CCCN=C(N)N)C(=O)N[C@H](C(=O)N[C@@H](CCC(=O)O)C(=O)N[C@@H](Cc1c[nH]c2ccccc12)C(=O)N[C@@H](CC(C)C)C(=O)N[C@@H](CCCN=C(N)N)C(=O)N[C@@H](CCCCN)C(=O)N[C@@H](CCCCN)C(=O)N[C@@H](CC(C)C)C(=O)N[C@@H](CCC(N)=O)C(=O)N[C@@H](CC(=O)O)C(=O)N[C@H](C(=O)N[C@@H](Cc1cnc[nH]1)C(=O)N[C@@H](CC(N)=O)C(=O)N[C@@H](Cc1ccccc1)C(=O)O)C(C)C)C(C)C", "note": "[LY333334]", "values": [
      {"measurement": "time of BSAP peak response after initiation of treatment", "setting": "PICP, BSAP, NTX, DPD; 20 and 40 μg/day", "result": 6, "unit": "months"},
      {"measurement": "time of maximum PICP", "setting": "PICP, BSAP, NTX, DPD; 20 and 40 μg/day", "result": "≤ 1", "unit": "month"},
      {"measurement": "time of peak urinary DPD concentrations after initiation of treatment", "setting": "PICP, BSAP, NTX, DPD; 20 and 40 μg/day", "result": 6, "unit": "months"},
      {"measurement": "BSAP response in 40 μg/day group greater than 20 μg/day group", "setting": "PICP, BSAP, NTX, DPD; 40 vs 20 μg/day", "result": 73, "unit": "%"},
      {"measurement": "DPD response in 40 μg/day group greater than 20 μg/day group", "setting": "PICP, BSAP, NTX, DPD; 40 vs 20 μg/day", "result": 83, "unit": "%"},
      {"measurement": "NTX response in 40 μg/day group greater than 20 μg/day group", "setting": "PICP, BSAP, NTX, DPD; 40 vs 20 μg/day", "result": 87, "unit": "%"},
      {"measurement": "PICP response in 40 μg/day group greater than 20 μg/day group", "setting": "PICP, BSAP, NTX, DPD; 40 vs 20 μg/day", "result": 94, "unit": "%"},
      {"measurement": "minimum increase in PICP level in the entire study population", "setting": "PICP, BSAP, NTX, DPD; about 1 month of therapy", "result": "at least 20 pM"},
      {"measurement": "time of peak urinary NTX excretion", "setting": "PICP, BSAP, NTX, DPD; last observation while on therapy", "result": 12, "unit": "months"},
      {"measurement": "effect on bone formation as indicated by bone markers", "setting": "human subjects; 6 μg", "result": "no significant effects"},
      {"measurement": "undesirable side effects", "setting": "human subjects; daily dose of about 20 μg vs about 40 μg", "result": "fewer undesirable side effects"},
      {"measurement": "lowest tested dose effective for stimulation of bone formation, as indicated by bone markers", "setting": "human subjects; human subjects, daily dose", "result": "about 15 μg"},
      {"measurement": "final PD model predicted increase in hip (femoral neck) BMD", "setting": "postmenopausal women; 40 μg/day, 21 months", "result": "~5.2", "unit": "%"},
      {"measurement": "final PD model predicted increase in total lumbar spine BMD", "setting": "postmenopausal women; 40 μg/day, 21 months", "result": "~14.6", "unit": "%"},
      {"measurement": "treatment group model change from mean baseline femoral neck BMD", "setting": "postmenopausal women; 20-μg group, 21 months", "result": 2.8, "unit": "%"},
      {"measurement": "treatment group model change from mean baseline spine BMD", "setting": "postmenopausal women; 20-μg group, 21 months", "result": 10.5, "unit": "%"},
      {"measurement": "treatment group model predicted change in femoral neck BMD", "setting": "postmenopausal women; 20-μg group, 21 months", "result": 0.018, "unit": "g/cm^2"},
      {"measurement": "treatment group model predicted change in spine BMD", "setting": "postmenopausal women; 20-μg group, 21 months", "result": 0.086, "unit": "g/cm^2"},
      {"measurement": "base model change from mean baseline femoral neck BMD", "setting": "postmenopausal women; [1]", "result": 4.2, "unit": "%"},
      {"measurement": "base model change from mean baseline spine BMD", "setting": "postmenopausal women; [1]", "result": 12.6, "unit": "%"},
      {"measurement": "base model predicted increase in femoral neck BMD, typical treated patient", "setting": "postmenopausal women; 21 months, 20 and 40 μg groups together, 272 patients", "result": 0.027, "unit": "g/cm^2"},
      {"measurement": "base model predicted increase in spine BMD, typical treated patient", "setting": "postmenopausal women; 21 months, 20 and 40 μg groups together, 276 patients", "result": 0.103, "unit": "g/cm^2"},
      {"measurement": "treatment group model change from mean baseline femoral neck BMD", "setting": "postmenopausal women; 40-μg group, 21 months", "result": 5.3, "unit": "%"},
      {"measurement": "treatment group model change from mean baseline spine BMD", "setting": "postmenopausal women; 40-μg group, 21 months", "result": 14.8, "unit": "%"},
      {"measurement": "treatment group model predicted change in femoral neck BMD", "setting": "postmenopausal women; 40-μg group, 21 months", "result": 0.034, "unit": "g/cm^2"},
      {"measurement": "treatment group model predicted change in spine BMD", "setting": "postmenopausal women; 40-μg group, 21 months", "result": 0.121, "unit": "g/cm^2"},
      {"measurement": "subjects with a negative BMD response (spine BMD<0.00 g/cm^2)", "setting": "postmenopausal women; from a total of 272, 21 months, FIG. 11", "result": "four"}
    ]}
  ]
}
